Laboratory results as given in patent US20050281891A1, “Testosterone stimulant” (Ecobio, Inc., priority 2004, published 2005).

System: systemic testosterone levels
Assay: Testosterone stimulation in rats: iron, chitosan and iron chitosan chelate vs placebo
Assay type: in vivo, Sprague Dawley rats
Details: 8-week old rats, oral 200 μL twice a day for 7 days; 0.12 wt % iron lactate, 1 wt % chitosan or 1 wt % iron chitosan chelate
Experimental: The effects of an iron chitosan chelate, chitosan, and iron on systemic testosterone levels in test groups of 8-week old Sprague Dawley rats is observed and compared to a control group. Each of the groups includes 8 rats. The rats of each group are orally administered a liquid composition twice a day, where group 1 receives a carrier composition in the form of a placebo, group 2 receives the carrier enhanced with 200 μL of 0.12 wt % iron lactate, group 3 receives the carrier enhanced with 200 μL of 1 wt % chitosan having a weight average molecular weight of 19,500 Mw, and group 4 receives the carrier enhanced with 200 μL of 1 wt % iron chitosan chelate (chitosan weight average molecular weight 19,500 Mw). The effects of the iron, chitosan, and iron chitosan chelate in systemic testosterone levels are compared to the systemic testosterone levels of the rats administered with the carrier placebo alone. After 7 days of dosing the 4 rat groups twice per day, the impact of the test groups compared to the control group on the rats testosterone levels is recorded, and is set forth in Table 1.

`CC(O)C(=O)[O-].CC(O)C(=O)[O-].[Fe+2]` (centres unmarked) [Iron, iron lactate] was tested. Which “% Increase from Placebo” value did it give?
Its value is “˜0%”.

And the “Testosterone Level” value?
Its value is 358.1 ± 23.6 (pg/100 μL).
